Experiments:
[1] = test system: IEC6 cells; assay: Fibrosis/EMT-related gene and protein expression in TGFβ1-induced EMT cell model; format: cell-based, rat; settings: for expression of fibrotic genes and proteins (Vimentin, αSMA): TGFβ1, oxamate 20 mmol/L, DCA 20 mmol/L or rotenone 10 nmol/L
[2] = test system: IEC6 cells; assay: Glycolysis and metabolic gene expression in TGFβ1-induced cells; format: cell-based, rat; settings: TGFβ1 + 2DG vs TGFβ1, n = 7–8
[3] = test system: IEC6 cells; assay: Lactate determination in cell culture supernatant; format: cell-based, rat; settings: TGFβ1 10 ng/mL, 2DG 1 mmol/L, 7 days, n = 6
[4] = test system: IEC6 cells; assay: Histone lactylation; format: cell-based, rat; settings: exogenous lactate, Western blot, n = 3
[5] = test system: Smad2 or Smad3; assay: Smad2/Smad3 phosphorylation after lactate treatment; format: cell-based

C=C(C)[C@H]1Cc2c(ccc3c2O[C@@H]2COc4cc(OC)c(OC)cc4[C@@H]2C3=O)O1 [rotenone]
expression of fibrotic genes and proteins (Vimentin, αSMA) [1]: increased the expression of fibrotic genes

O=CC[C@@H](O)[C@H](O)[C@H](O)CO [Peptide 2DG, 2-Deoxy-D-glucose]
glycolysis (GSEA-KEGG of gene expression) [2]: effectively inhibited glycolysis | lactate levels (TGFβ1-mediated extracellular lactate production) [3]: substantial reduction | expression of fibrotic genes and proteins ([1]; TGFβ1 10 ng/mL, 2DG 1 mmol/L, 7 days): substantial reduction

O=C(O)C(Cl)Cl [DCA, sodium dichloroacetate]
expression of fibrotic genes and proteins (Vimentin, αSMA) [1]: more pronounced reduction

CC(O)C(=O)O (stereo not drawn) [lactate]
site-specific histone lactylation (H2BK16la, H3K9la, H3K18la, H4K5la and H4K12la) [4]: induced overwhelming lactylation modifications | expression of fibrotic genes after lactate stimulation (qRT-PCR) ([1]; lactate 10 mmol/L for 72 h, no TGFβ1, n = 6): significantly elevated | phosphorylation of Smad2 or Smad3 [5]: did not alter

NC(=O)C(=O)O [oxamate]
expression of fibrotic genes and proteins (Vimentin, αSMA) [1]: more pronounced reduction

From PMC11873616 (Acta Pharmaceutica Sinica. B, 2024)
